We go through three compounds from US9718771B2, “Aniline derivative, pharmaceutical composition containing same, and use thereof” (Kissei Pharmaceutical Co., Ltd., priority 2014, dated 2017).

Each structure is given as a SMILES string.

For series [1], the system named is Naïve T cells-transferred colitis model. The series can be described thus: Drug efficiency evaluation in naïve T cells-transferred colitis model. It is filed as in vivo. The note with it: SCID mice, mean ± standard error. As for the experimental part: The Drug Efficiency Evaluation in Naïve T Cells—Transferred Colitis Model
(1) Purification of CD45RB Positive Naïve T Cells and Transfer the Cells into SCID Mice
After female BALB/c mice (Charles River Japan, 8-weeks-old in use) were sacrificed by blood removal from cervical vein under inhalation anesthesia with isoflurane spleens were harvested from these mice. Spleens were washed with ice-cold PBS (phosphate buffered saline, Invitrogen) and stored in 50 mL tube containing PBS on ice. Spleens stored on ice were mashed with the upper portion of slide glasses inside a biological safety cabinet, and filtered through a cell filter (pore size 70 μm), and the filtrate was centrifuged at 500×g, room temperature for 5 minutes. After the supernatant was removed, 12 mL of RBC lysis buffer (Biolegend) was added to a cell pellet and it was resuspended and left for about 3 minutes. The supernatant was removed after centrifugation and the hemolytic process was performed by repeating same procedure once again.
The cells were purified with Mouse Naive T cell CD4^+/CD62L^+/CD44^low Colum Kit (R&D systems). The cells performed with the hemolytic process, were suspended by column buffer attached to the above Column Kit, and purified through a cell filter (pore size 70 μm) after centrifugation at 500×g, room temperature for 5 minutes. The cells were resuspended with column buffer, and antibody cocktails attached to the above Column Kit were added to this and mixed. After that, the cells were purified according to the protocol of the Column Kit.
Next, purification of CD45RB positive cells was performed by MACS (registered mark) separator (Miltenyi Biotec). The purified cells were suspended with 2 mL of PBS containing 0.5% BSA, and reacted at room temperature for 15 minutes after adding FITC (fluorescein isothiocyanate)-labeled anti-CD45RB antibody (Biolegend). After washing two times with PBS containing 0.5% BSA by centrifugation, the cells were resuspended with 2 mL of PBS containing 0.5% BSA and reacted at room temperature for 10 minutes after adding anti-FITC microbeads (Miltenyi Biotec). After washing one time with PBS containing 0.5% BSA by centrifugation, the cells were resuspended with 3 mL of PBS containing 0.5% BSA, and a fraction of CD45RB positive cells was purified according to the protocol of MACS (registered trademark) separator. In the process of elution after detached from MACS (registered trademark) separator, the cells were separated with 5 mL of PBS. The cell suspension was washed one time by centrifugation with PBS, resuspended by appropriate PBS and measured the cell number as naïve T cells suspension for transfer. Female CB17/Icr-scid/scid Jcl (SCID mice) (Charles River Japan, 8-weeks-old in use) were induced colitis by intraperitoneal administration of 500 μL (divided into 250 μL two times) of naïve T cells suspension prepared at 6×10^5 cells/mL by PBS.
(2) Measurement of Body Weight and Procedure for Administration of Drugs
Body weights were measured at day 1, 8 and 15 as day 0 when naïve T cells were transferred to mice. Mice were grouped evenly, based on body weight change at day 15. The measurement of body weight was performed two times a week after day 15. A solvent (Vehicle) and test compounds were administered twice a day from the evening of day 15. The administration solution was prepared as indicated below. Firstly, 0.5% methyl cellulose (Wako pure chemicals) of 1/10 volume of total volume was added to test compound, and a suspension was prepared by sonication. […] After that, administration solutions for test compounds were prepared by sonication while adding distilled water of 9/10 volume of total volume to these suspensions in several batches. A solution prepared in the same volume ratios of 0.5% methyl cellulose and distilled water as administration solutions for test compounds was used as vehicle. Administration solutions for vehicle or test compounds were orally administered to mice at 5 mL/kg.

Another series concerns male guinea pigs. The series can be described thus: Confirmation test for reduction effects on heart rate. Format: in vivo. As to conditions: anesthetized guinea pigs, intravenous (vein of penis), 0.03 mg/kg. An excerpt: Confirmation Test for Reduction Effects on Heart Rate
Effects on heart rate of a test compound and fingolimod, which is an S1P1 receptor agonist, were confirmed using male guinea pigs (Japan SLC, 5 to 8-weeks-old in use). Guinea pigs were incised in the median line of cervical region under anesthesia with pentobarbital (Kyoritsu Pharmaceutical) by intraperitoneal administration. A PE90 catheter filled with saline (Otsuka Pharmaceutical Factory) containing 50 units/mL heparin (Mochida Pharmaceutical) was inserted to right common carotid artery. By holding the insertion site of the catheter with silk sutures, it was performed to avoid bleeding from the insertion site and to fix the catheter. After it was confirmed that blood flow reached into the catheter, an apical end of catheter opposite to the insertion site of artery was connected to pressure transducer, and blood pressure and heart rate were measured via a strain pressure amplifier and a heart rate counter unit, respectively. […]
After it was confirmed that blood pressure and heart rate were stabilized in guinea pigs, vehicle, the test compound or fingolimod was administered into the vein of penis at 0.25 mL/kg using 1 mL syringes with needles of 27G. The changes of blood pressure and heart rate were measured every 5 minutes after administration of vehicle, the test compound or fingolimod.

The mark [2] stands for this setting: oral twice a day, 1.5 mg/kg, vehicle group = 100%.

For the compound `C[C@]12C=CC(=O)C=C1CC[C@@H]1[C@@H]2[C@@H](O)C[C@@]2(C)[C@H]1CC[C@]2(O)C(=O)CO` [Prednisclone, reference compound], the “Body weight change ratio (%)” value in series [1] (oral twice a day from day 15, 1.5 mg/kg, day 30) is −10.4 ± 1.4%. Moreover, in series [1] (setting [2]), the “Colon weight (%)” value worked out at 58.3 ± 18.9% and the “DAI score (%)” value came out at 104.4 ± 20.0%.

With `Nc1ccc(O)c(C(=O)O)c1` [5-Aminosalicylic acid, reference compound], the “Colon weight (%)” value in series [1] (oral twice a day, vehicle group = 100%) is recorded as 75.9 ± 58.3%.

For `CCCCCCCCc1ccc(CCC(N)(CO)CO)cc1` [fingolimod], the “effect on heart rate” value in the series on male guinea pigs is “remarkable reduction of heart rate”.
